According to patent US20210145834A1, “COMBINATION OF POZIOTINIB WITH CYTOTOXIC AGENT AND/OR OTHER MOLECULARLY TARGETED AGENT AND USE THEREOF” (Spectrum Pharmaceuticals, Inc., priority 2018, published 2021):
“And” between values parts separate entries of the source, which are not always exact repeats. Identical values can stand only once. Like-named read-outs stand apart in the source and are kept apart here. Each block holds one compound with its values, some of them ahead of it.

How the values were obtained:
Type in all cases: cell-based
TE-4 cells = test: Cell growth inhibition assay (sulforhodamine B), single agents and combinations; conditions: 72 h; TE-4, single agent, 3 days
Protocol: The effect of the inventive compositions on the cancer cell growth inhibition was conducted in EGFR-overexpressed or -mutated cancer cell lines. […] All cells except for H1975 were cultured for 72 hours prior to cell plating. […] Approximately 24 hours after plating, cells were exposed to ten, two-fold or three fold serial dilutions of test individual compounds or the combination of the two test compounds at a constant molar to molar ratio or non-constant ratio of two agents. Cells were incubated in the presence of compounds for 3 days except for H1975, which was for 2 days at 3×10^3 cells/well. Cell growth inhibition based on measurement of cellular protein content is determined by sulforhodamine B colorimetric assay according to the “Nat Protoc. […] The absorbance was read on a SpectraMax™ plate reader at 540 nm. For H1975 cells, cell growth (%) is determined by adding CellTiter™ 96 Aqueous One Solution Cell Proliferation Assay reagent (Promega) according to the manufacturer's protocol. […] Cell growth (%) was calculated by following equations. Percentage growth inhibition was calculated using: a. […] [(Ti−Tz)/Tz]×100, for concentrations for which Ti<Tz Each T value means an absorbance. […] Combination effects on potency were evaluated by combination Index using Calcusyn™ Software. […] The combination Index (CI) at the dose of combination GI50 was evaluated by using CalcuSyn™ (Biosoft).

H1975 cells = test: Cell growth inhibition assay (CellTiter 96 Aqueous One), single agents and combinations; conditions: H1975, single agent, 2 days
Protocol: (§1) The effect of the inventive compositions on the cancer cell growth inhibition was conducted in EGFR-overexpressed or -mutated cancer cell lines.
(§2) All cells except for H1975 were cultured for 72 hours prior to cell plating. Cells were seeded in a 96-well plate at 4 to 15×10^3 cells/well. Approximately 24 hours after plating, cells were exposed to ten, two-fold or three fold serial dilutions of test individual compounds or the combination of the two test compounds at a constant molar to molar ratio or non-constant ratio of two agents. Cells were incubated in the presence of compounds for 3 days except for H1975, which was for 2 days at 3×10^3 cells/well.
(§3) Cell growth inhibition based on measurement of cellular protein content is determined by sulforhodamine B colorimetric assay according to the “Nat Protoc. […] The absorbance was read on a SpectraMax™ plate reader at 540 nm. For H1975 cells, cell growth (%) is determined by adding CellTiter™ 96 Aqueous One Solution Cell Proliferation Assay reagent (Promega) according to the manufacturer's protocol.
(§4) Inhibition of cell growth was estimated after treatment with test agent or combination of test agents for incubating time (2-3 days) and comparing the signal to cells treated with vehicle (DMSO). Cell growth (%) was calculated by following equations.
(§5) Percentage growth inhibition was calculated using:
(§6) a. [(Ti−Tz)/(C−Tz)]×100, for concentrations for which Ti=Tz
(§7) b. [(Ti−Tz)/Tz]×100, for concentrations for which Ti<Tz
(§8) Each T value means an absorbance. Tz: Time zero (cell density group before the treatment of test group), C:100% control growth […] test agent, Ti: Test growth in the presence of drug at the concentration levels.
(§9) Combination effects on potency were evaluated by combination Index using Calcusyn™ Software. The range of Combination Index (CI) for two compounds is described in Table 2.
(§10) Fifty percent growth inhibition values (GI50) for combinations of poziotinib with partner drugs were calculated and the single dosing growth inhibition (%) at the dose of combo GI50 were also calculated by using GraphPad Prism™ v6. The combination Index (CI) at the dose of combination GI50 was evaluated by using CalcuSyn™ (Biosoft).

HCC827 cells = test: Cell growth inhibition assay (sulforhodamine B), single agents and combinations; conditions: HCC827, single agent, 3 days
Protocol: as §1, §2, §3, §4, §5, §6, §7, §8, §9, §10

MDA-MB-453 cells = test: as above; conditions: MDA-MB-453, single agent, 3 days
Protocol: as §1, §2, §3, §4, §5, §6, §7, §8, §9, §10

BT-474 cells = test: as above; conditions: BT-474, single agent, 3 days
Protocol: as §1, §2, §3, §4, §5, §6, §7, §8, §9, §10

SK-BR-3 cell line = test: Synergy effect study on cell proliferation (Example 2), single agents and 6x6 combo matrix; conditions: SK-BR-3, single compound, 3 days
Protocol: In this example, effects of direct cell killing of selected cancer cell line Calu-3, BT-474 and SK-BR-3 treated with Poziotinib alone or in combination with other agents were assessed.
as §2, with “cells” for “cells except for H1975”, “in the media listed in the temperature of 37° C., 5% CO2 and 95% humidity.” for “for 72 hours prior to cell plating.”, “days.” for “days except for H1975, which was for 2 days at 3×10^3 cells/well.”
as §4
(§11) Percentage growth inhibition was calculated using both Bliss independence model and Lowewe additivity model. A score higher than 5 indicates synergy and a score less that −5 indicates antagonism.
Calu-3, BT-474 or SK-BR-3 cell lines were tested with Poziotinib combined with a second compound respectively in a 6×6 combo matrix for 3 days at 37° C., 5% CO2 and 95% humidity as shown in combinations shown in the tables herein below: […]

BT-474 cell line = test: as above; conditions: BT-474, single compound; for IC50 / Max inh.: 3 days
Protocol: as §2, with “Cells” for “All cells except for H1975 were cultured for 72 hours prior to cell plating. Cells”, “days.” for “days except for H1975, which was for 2 days at 3×10^3 cells/well.”
as §4, §11

Calu-3 cell line = test: as above; conditions: Calu-3, single compound; for Max inh. / IC50: 3 days
Protocol: as §2, with “Cells” for “All cells except for H1975 were cultured for 72 hours prior to cell plating. Cells”, “days.” for “days except for H1975, which was for 2 days at 3×10^3 cells/well.”
as §4, §11

SK-BR-3 cells = test: Cell growth inhibition assay (sulforhodamine B), single agents and combinations; conditions: Homo sapiens, SK-BR-3, 72 h; SK-BR3, single agent, 3 days
Protocol: as §1, §2, §3, §4, §5, §6, §7, §8, §9, §10

MDA-MB-361 cells = test: as above; conditions: Homo sapiens, 72 h; MDA-MB-361, single agent, 3 days
Protocol: as §1, §2, §3, §4, §5, §6, §7, §8, §9, §10

MCF-7 cells = test: as above; conditions: Homo sapiens, MCF7, 72 h; MCF-7, single agent, 3 days
Protocol: as §1, §2, §3, §4, §5, §6, §7, §8, §9, §10

MDA-MB-468 cells = test: as above; conditions: Homo sapiens, 72 h; MDA-MB-468, single agent, 3 days
Protocol: as §1, §2, §3, §4, §5, §6, §7, §8, §9, §10

N87 cells = test: as above; conditions: 72 h; N87, single agent, 3 days
Protocol: as §1, §2, §3, §4, §5, §6, §7, §8, §9, §10

[1] = Homo sapiens, Calu-3, 72 h, read-out: IC50

GI50 (H1975 cells; Homo sapiens, NCI-H1975, 48 h): > 10000 nM
GI50 (HCC827 cells; Homo sapiens, 72 h): 980 nM
GI50 (MDA-MB-453 cells; Homo sapiens, MDA-MB-453, 72 h): 385 nM
GI50 (BT-474 cells; Homo sapiens, BT-474, 72 h): 9000 nM
Compound: O=c1[nH]cc(F)c(=O)[nH]1 [5-FU, Fluorouracil]
GI50 (TE-4 cells): 7900 nM

Compound: N.N.[Cl][Pt][Cl] [Cisplatin]
IC50 (SK-BR-3 cell line): 549 nM
Max inh. (SK-BR-3 cell line): 98.11%
GI50 (H1975 cells): > 10000 nM
IC50 (BT-474 cell line): > 100000 nM
Max inh. (BT-474 cell line): 41.78% and 37.43%
Max inh. (Calu-3 cell line): 59.75% and 69.39% and 68.77%
GI50 (HCC827 cells): > 20000 nM
GI50 (MDA-MB-453 cells): > 10000 nM
GI50 (BT-474 cells): > 20000 nM

IC50 (BT-474 cell line; Homo sapiens, 72 h): > 10000 nM
Compound: N#Cc1ccc(C(c2ccc(C#N)cc2)n2cncn2)cc1 [Letrozole]
cell inhibitory activity (in words) (BT-474 cell line): weak or no response
Max inh. (BT-474 cell line): −15.80%

GI50 (H1975 cells; Homo sapiens, NCI-H1975, 48 h): 21.6 nM
GI50 (HCC827 cells; Homo sapiens, 72 h): 3.4 nM
GI50 (MDA-MB-453 cells; Homo sapiens, MDA-MB-453, 72 h): 3 nM
GI50 (BT-474 cells; Homo sapiens, BT-474, 72 h): 1 nM
Compound: CC(=O)O[C@H]1C(=O)[C@@]2(C)[C@H]([C@H](OC(=O)c3ccccc3)[C@]3(O)C[C@H](OC(=O)[C@H](O)[C@@H](NC(=O)c4ccccc4)c4ccccc4)C(C)=C1C3(C)C)[C@]1(OC(C)=O)CO[C@@H]1C[C@@H]2O [Paclitaxel]

IC50 (BT-474 cell line; Homo sapiens, 72 h): > 5000 nM
Compound: CC(=O)c1c(C)c2cnc(Nc3ccc(N4CCNCC4)cn3)nc2n(C2CCCC2)c1=O [Palbociclib]
Max inh. (BT-474 cell line): 12.13%

IC50 (BT-474 cell line; Homo sapiens, 72 h): > 10000 nM
IC50 (Calu-3 cell line; [1]): > 10000 nM
Compound: Nc1nc2[nH]cc(CCc3ccc(C(=O)N[C@@H](CCC(=O)O)C(=O)O)cc3)c2c(=O)[nH]1 [Pemetrexed]
cell inhibitory activity (in words) (BT-474 cell line): not effective
Max inh. (BT-474 cell line): 1.78%
cell inhibitory activity (in words) (Calu-3 cell line): not effective
Max inh. (Calu-3 cell line): 49.78%

IC50 (SK-BR-3 cell line; Homo sapiens, 72 h): 1 nM
GI50 (H1975 cells): 1.3 nM
IC50 (BT-474 cell line; listed as Pozotinb): < 1.5 nM
IC50 (BT-474 cell line; Homo sapiens, 72 h): < 1.5 nM
GI50 (HCC827 cells; Homo sapiens, 72 h): 0.4 nM
GI50 (MDA-MB-453 cells; Homo sapiens, MDA-MB-453, 72 h): 2.5 nM
GI50 (SK-BR-3 cells): 0.9 nM
GI50 (MDA-MB-361 cells): 21 nM
GI50 (MCF-7 cells): 2740 nM
GI50 (MDA-MB-468 cells): 640 nM
GI50 (BT-474 cells; Homo sapiens, BT-474, 72 h): 0.5 nM
Compound: C=CC(=O)N1CCC(Oc2cc3c(Nc4ccc(Cl)c(Cl)c4F)ncnc3cc2OC)CC1 [Poziotinib, 1-[4-[4-(3,4-dichloro-2-fluoroanilino)-7-methoxyquinazolin-6-yl]oxypiperidin-1-yl]prop-2-en-1-one]
GI50 (TE-4 cells): 0.8 nM
Max inh. (SK-BR-3 cell line): 57.81%
Max inh. (BT-474 cell line): 71.74%
Max inh. (BT-474 cell line; listed as Pozotinb): 68.16%
Max inh. (Calu-3 cell line): 94.51% and 81.67%
Max inh. (Calu-3 cell line; listed as Pozotinb): 89.22%
GI50 (N87 cells): 0.1 nM

IC50 (Calu-3 cell line; [1]): 4480 nM
Compound: CNC(=O)c1cc(Oc2ccc(NC(=O)Nc3ccc(Cl)c(C(F)(F)F)c3)cc2)ccn1 [Sorafenib]
Max inh. (Calu-3 cell line): 64.29%

IC50 (Calu-3 cell line; [1]): 167 nM
Compound: CO[C@H]1C[C@@H]2CC[C@@H](C)[C@@](O)(O2)C(=O)C(=O)N2CCCC[C@H]2C(=O)O[C@H]([C@H](C)C[C@@H]2CC[C@@H](OC(=O)C(C)(CO)CO)[C@H](OC)C2)CC(=O)[C@H](C)/C=C(\C)[C@@H](O)[C@@H](OC)C(=O)[C@H](C)C[C@H](C)/C=C/C=C/C=C/1C [Temsirolimus]
Max inh. (Calu-3 cell line): 58.19%

IC50 (BT-474 cell line; Homo sapiens, 72 h): > 10000 nM
IC50 (Calu-3 cell line; [1]): 42 nM
Compound: CC(=O)Nc1cccc(-n2c(=O)n(C3CC3)c(=O)c3c(Nc4ccc(I)cc4F)n(C)c(=O)c(C)c32)c1 [Trametinib]
Max inh. (BT-474 cell line): 15.91%
Max inh. (Calu-3 cell line): 89.69%

GI50 (SK-BR-3 cells): 1.7 nM
GI50 (MDA-MB-361 cells): 1.1 nM
GI50 (MCF-7 cells): 3.6 nM
GI50 (MDA-MB-468 cells): 0.3 nM
GI50 (BT-474 cells; Homo sapiens, BT-474, 72 h): 2.3 nM
Compound: CCC1=C[C@@H]2CN(C1)Cc1c([nH]c3ccccc13)[C@@](C(=O)OC)(c1cc3c(cc1OC)N(C)[C@H]1[C@@](O)(C(=O)OC)[C@H](OC(C)=O)[C@]4(CC)C=CCN5CC[C@]31[C@@H]54)C2 [Vinorelbine]

Compound: ado-trastuzumab emtansine [T-DM1]
Max inh. (SK-BR-3 cell line): 85.37%
IC50 (Calu-3 cell line): 90.449 µg/mL
Max inh. (Calu-3 cell line): 55.24%
